In patent US7371742B2, “Porphyrin derivatives for photodynamic therapy” (Institut Curie, priority 2001, dated 2008):
Read-outs that look alike come from different tables or passages of the source.

Experiments:
FT-1 cells = assay: FT-1 cell photocytotoxicity; type: cell-based, human; details: for Photocytotoxicity FT-1, Red: Red light, concentration not given
A549 = A549 photocytotoxicity (entries inside Table B cells); type: cell-based; details: A549 named inside the cell; concentration not given
[1] = tested on: RBY-79 (indifferently named Y-79) cells; assay: RBY-79 (Y79) cell cytotoxicity / photocytotoxicity; details: for Photocytotoxicity RBY-79, concentration giving 50%: 50% effect
Description: (§1) Columns HT29 and Y79 (═RBY79), without light, correspond to the cytotoxic activity.

[2] = tested on: human colic adenocarcinoma cell line HT29; assay: HT29 cell survival (MTT assay) after 24 h incubation, with or without light irradiation; details: for Photocytotoxicity HT 29, concentration giving 50%: 50% effect; for cytotoxic for HT29 (in words): remark of the inventors
Description: HT29 cells were cultivated in Dulbecco's MEM supplemented with 10% fetal calf serum (FCS). Cells from log-phase culture were seeded in 24-microwell plates (1 mL-5×10^4 cells/well) and kept at 37° C. in a water-jacketed incubator for 2 days under an air/CO2 atmosphere (5% CO2). Tested compounds, in DMSO solution, were added under the minimum volume (5 μL) to reach a concentration ranging from 0.1 to 10 μg/mL. Controls cells received 5 μL of DMSO free of dye. Plates were incubated 24 h, then medium was removed and the cells were washed twice with phosphate buffered saline (PBS) before addition of fresh medium free of drug and irradiation with visible light using a home made “light box” giving a fluence of 3.8 mW/cm^2 on the whole visible spectrum. Irradiation with red light was carried out using the same device fitted with an orange filter (0% T at 520 nm and 80% T at 590 nm) leading to a fluence of 2 mW/cm^2.
Plates were reincubated for 3 days before evaluation of the cell survival using the MTT assay (T. Mosmann, “Rapid calorimetric assay for cellular growth and survival. Application to proliferation assays”. J. Immunol. Methods 65,55-63,1983) using 30 min incubation with 100 μg well of 3-[4,5-dimethylthiazol-2-yl]-2,5-diphenyl tetrazolium bromide (MTT, Sigma). After removal of the medium, formazan crystals were taken up with 100 μL of DMSO and absorbance at 540 ni was measured with a Bio-Rad microplate reader (model 450); survival was expressed as % of untreated controls.

tumoral cells = assay: Antitumoral photodynamic activity in general (remarks on Tables B and C); type: cell-based, human; details: for active when activated by light towards tumoral cells (in words): under appropriate irradiation
Description: The main results for antitumoral effects are reported in Table B, showing the rate of photocytotoxicity. The higher the percentage, the higher the antitumnoral or antiviral effect.
Concerning the antitumoral activity, the compounds obtained by the inventors are active, under appropriate irradiation indicated towards tumoral cells in which these derivatives are able to accumulate.

[3] = tested on: RBY-79 (indifferently named Y-79) cells
Description: as §1

L-1210 cells = assay: Cytotoxicity L-1210 (no light), cytostatic activity; type: cell-based, human; details: for Cytotoxicity L-1210 (no light), cell marked Red: cell prints 'Red', concentration not given; for Cytotoxicity L-1210 (no light), concentration giving 50%: 50% effect
Description: Column L1210 corresponds to the cytostatic activity.

[4] = patient, cited from earlier work; for period of photosensitivity: after treatment
[5] = read-out: Y79 IC50 (μM) With 2J/cm^2, irradiation with filter (0% T at 520 nm, 80% T at 590 nm), 3.5 mW/cm^2, 10 min
[6] = read-out: Y79 IC50 (μM) without light, without light (cytotoxic activity)
[7] = without light, remark of the inventors
[8] = read-out: HT 29 IC50 (μM) with 2J/cm^2, irradiation with filter (0% T at 520 nm, 80% T at 590 nm), 3.5 mW/cm^2, 10 min
[9] = read-out: HT 29 IC50 (μM) without light, without light (cytotoxic activity)
[10] = with light, compared with its cytotoxicity

| Compound | IC50 [1, 5] [µM] | IC50 [1, 6] [µM] | IC50 [2, 8] [µM] | IC50 [2, 9] [µM] | Photocytotoxicity RBY-79, concentration giving 50% ([1]; with light) | Photocytotoxicity HT 29, concentration giving 50% ([2]; with light) | also measured |
| --- | --- | --- | --- | --- | --- | --- | --- |
| 5,10,15-Tri(3-O-β-D-glucosylphenyl)-2,3-chlorin and 5,10,15-tri(3-O-β-D-glucosylphenyl)-7,8-chlorin [Compound 55] | 3.7 ± 1.8 | 8 ± 7 | 5.7 ± 3 | > 15 | – | – | Photocytotoxicity FT-1, Red (FT-1 cells): 25%; Photocytotoxicity A549 (A549): A549, 10%; cytotoxic for Y79 (in words) [1, 7]: cytotoxic; Photocytotoxicity HT 29, Red ([2]; Red light, concentration not given): Red, 0% |
| 5,10,15-tri(para-O-diethyleneglycoloxyphenyl)-20-phenylporphyrin [Compound 75] | 1.2 | 4.5 | 4.3 | 6.5 | – | – | biological activities (in words) (tumoral cells; non glycosylated analogue compared with compound 67): totally inactive |
| OC[C@H]1O[C@H](Sc2c(F)c(F)c(-c3c4nc(c(-c5c(F)c(F)c(F)c(F)c5F)c5ccc([nH]5)c(-c5c(F)c(F)c(F)c(F)c5F)c5nc(c(-c6c(F)c(F)c(F)c(F)c6F)c6ccc3[nH]6)C=C5)C=C4)c(F)c2F)[C@@H](O)[C@@H](O)[C@@H]1O [Compound 30] | – | – | – | – | – | – | Photocytotoxicity RBY-79, % at 2 μg/ml [3]: 90% 2 μg/ml |
| OC[C@H]1O[C@@H](OCCOc2cccc(-c3c4nc(c(-c5cccc(OCCO[C@@H]6O[C@H](CO)[C@@H](O)[C@H](O)[C@H]6O)c5)c5ccc([nH]5)c(-c5cccc(OCCO[C@@H]6O[C@H](CO)[C@@H](O)[C@H](O)[C@H]6O)c5)c5nc(c(-c6cccc(OCCO[C@@H]7O[C@H](CO)[C@@H](O)[C@H](O)[C@H]7O)c6)c6ccc3[nH]6)CC5)C=C4)c2)[C@H](O)[C@@H](O)[C@@H]1O [Compound 58] | – | – | – | – | – | – | Cytotoxicity L-1210 (no light), cell marked Red (L-1210 cells): Red, 0, A549%; Photocytotoxicity FT-1, Red (FT-1 cells): Red 0% |
| OC[C@H]1O[C@@H](Oc2cccc(-c3c4nc(c(-c5cccc(O[C@@H]6O[C@H](CO)[C@@H](O)[C@H](O)[C@H]6O)c5)c5ccc([nH]5)c(-c5cccc(O[C@@H]6O[C@H](CO)[C@@H](O)[C@H](O)[C@H]6O)c5)c5nc(c(-c6ccccc6)c6ccc3[nH]6)C=C5)C=C4)c2)[C@H](O)[C@@H](O)[C@@H]1O [Compound 60] | – | – | – | – | – | – | Photocytotoxicity FT-1 (FT-1 cells; concentration and light not given): 0%; Photocytotoxicity A549 (A549): A549, 20% |
| OC[C@H]1O[C@@H](OCCOc2cccc(-c3c4nc(c(-c5cccc(OCCO[C@@H]6O[C@H](CO)[C@@H](O)[C@H](O)[C@H]6O)c5)c5ccc([nH]5)c(-c5cccc(OCCO[C@@H]6O[C@H](CO)[C@@H](O)[C@H](O)[C@H]6O)c5)c5nc(c(-c6cccc(OCCO[C@@H]7O[C@H](CO)[C@@H](O)[C@H](O)[C@H]7O)c6)c6ccc3[nH]6)C=C5)C=C4)c2)[C@H](O)[C@@H](O)[C@@H]1O [Compound 61] | – | – | – | – | – | – | Cytotoxicity L-1210 (no light), cell marked Red (L-1210 cells): Red, 0%; Photocytotoxicity FT-1, Red (FT-1 cells): Red 0%; Photocytotoxicity A549 (A549): A549, 0% |
| OC[C@H]1O[C@H](SCc2ccc(-c3c4nc(c(-c5ccc(CS[C@H]6O[C@H](CO)[C@@H](O)[C@H](O)[C@@H]6O)cc5)c5ccc([nH]5)c(-c5ccc(CS[C@H]6O[C@H](CO)[C@@H](O)[C@H](O)[C@@H]6O)cc5)c5nc(c(-c6ccc(CS[C@H]7O[C@H](CO)[C@@H](O)[C@H](O)[C@@H]7O)cc6)c6ccc3[nH]6)C=C5)C=C4)cc2)[C@@H](O)[C@@H](O)[C@@H]1O [Compound 66, TPP(p-CH2-S-α-MannOH)4] | 15 | 28 | 10 | 21 | – | – | Cytotoxicity L-1210 (no light), % at 10 μg/ml (L-1210 cells): 0% 10 μg/ml; Photocytotoxicity RBY-79, % at 10 μg/ml ([1]; 10 μg/ml): 20%; Photocytotoxicity HT 29, % at 10 μg/ml ([2]; 10 μg/ml): 40% |
| OC[C@H]1O[C@H](OCCOCCOc2ccc(-c3c4nc(c(-c5ccc(OCCOCCO[C@H]6O[C@H](CO)[C@@H](O)[C@H](O)[C@@H]6O)cc5)c5ccc([nH]5)c(-c5ccc(OCCOCCO[C@H]6O[C@H](CO)[C@@H](O)[C@H](O)[C@@H]6O)cc5)c5nc(c(-c6ccccc6)c6ccc3[nH]6)C=C5)C=C4)cc2)[C@@H](O)[C@@H](O)[C@@H]1O [Compound 67, TPP(p-O-DEG-O-α-Mann)3] | 0.3 ± 0.08 | > 10 | 0.7 ± 0.4 | > 10 | 50% at 1.5 μg/ml, | 1.5 µg/mL | Cytotoxicity L-1210 (no light), concentration giving 50% (L-1210 cells): 50% 8 μg/ml; Photocytotoxicity RBY-79, % at 1 μg/ml ([1]; 1 μg/ml): 0% at 1 μg/ml; Photocytotoxicity RBY-79, % at 2 μg/ml ([1]; 2 μg/ml): 80% at 2 μg/ml, |
| OC[C@H]1O[C@H](SCCOCCOc2ccc(-c3c4nc(c(-c5ccc(OCCOCCS[C@H]6O[C@H](CO)[C@@H](O)[C@H](O)[C@@H]6O)cc5)c5ccc([nH]5)c(-c5ccc(OCCOCCS[C@H]6O[C@H](CO)[C@@H](O)[C@H](O)[C@@H]6O)cc5)c5nc(c(-c6ccccc6)c6ccc3[nH]6)C=C5)C=C4)cc2)[C@@H](O)[C@@H](O)[C@@H]1O [Compound 68, TPP(p-O-DEG-S-α-Mann)3] | 1 ± 0.5 | 6 ± 2 | 5.8 ± 3 | > 10 | 1 µg/mL | 50% 4 μg/ml | Cytotoxicity L-1210 (no light), % at 10 μg/ml (L-1210 cells): 0% 10 μg/ml |
| TPC(m-O-β-GluOH)4 [Compound 54] | 3 ± 1.4 | 3.9 ± 0.1 | 4.4 ± 0.1 | > 15 | – | – | Photocytotoxicity FT-1, Red (FT-1 cells): 20%; Photocytotoxicity A549 (A549): 0, A549, 0%; cytotoxic for Y79 (in words) [1, 7]: cytotoxic |
| TPP F4(p-S-β-GluOH)3 [Compound 26] | 2.2 | > 10 | 1.7 | 6.5 | 3.3 µg/mL | 50% 2 μg/ml | Cytotoxicity L-1210 (no light), % at 10 μg/ml (L-1210 cells): 20% 10 μg/ml; active when activated by light towards tumoral cells (in words) (tumoral cells): active; cytotoxic for HT29 (in words) ([2]; without light): cytotoxic |
| TPP(p-OC3-S-α-MannOH)3 [Compound 24] | 4.7 | 7.5 | 3.2 | 3.2 | 6.5 µg/mL | 4.6 µg/mL | Cytotoxicity L-1210 (no light), concentration giving 50% (L-1210 cells): 50% 14 μg/ml; active when activated by light towards tumoral cells (in words) (tumoral cells): active; phototoxic for Y79 (in words) [1, 10]: less phototoxic; cytotoxic for Y79 (in words) [1, 7]: cytotoxic; phototoxic for HT29 (in words) [2, 10]: less phototoxic; cytotoxic for HT29 (in words) ([2]; without light): cytotoxic |
| TPP(p-OC3-S-β-GluOH)3 [Compound 23] | 6.5 | > 10 | 11 | 13 | 3 µg/mL | 6 µg/mL | Cytotoxicity L-1210 (no light), % at 10 μg/ml (L-1210 cells): 0% 10 μg/ml |
| benzoporphyrin derivative monoacid ring A [Verteporfin] | – | – | – | – | – | – | period of photosensitivity [4]: one day |
| porfimer sodium [Photofrin ®, reference compound] | – | – | – | – | – | – | time the drug stays in the skin after treatment ([4]; makes sensitive to strong light): approximately 30 days; period of photosensitivity [4]: several weeks; IC50 ([1]; read-out: Y79 IC50 With 2J/cm^2, estimated concentration, with 2J/cm^2, estimated for mean molecular weight 1178.55 dimer form): 2.6 µM; IC50 ([1]; read-out: Y79 IC50 without light, estimated concentration, without light, estimated for mean molecular weight 1178.55 dimer form): 3.9 µM; concentration at which cytotoxic for the Y79 cells ([1]; remark of the inventors): more than 3,9 μM; Y79 IC50 With 2J/cm^2, in μg/ml ([1]; with 2J/cm^2): 3 µg/mL; Y79 IC50 without light ([1]; without light): 4.6 µg/mL; cytotoxic for Y79 (in words) [1, 7]: cytotoxic; IC50 ([2]; read-out: HT 29 IC50 with 2J/cm^2, estimated concentration, with 2J/cm^2, estimated for mean molecular weight 1178.55 dimer form): 5.1 µM; HT 29 IC50 with 2J/cm^2, in μg/ml ([2]; with 2J/cm^2): 6 µg/mL; HT 29 IC50 without light, in μg/ml ([2]; without light): Inactive for 10 μg/ml |
